Reference: US20220331303A1, “USE OF AN OREXIN 2 RECEPTOR AGONIST FOR THE TREATMENT OF EXCESSIVE SLEEPINESS” (Takeda Pharmaceutical Company Limited, priority 2019, published 2022)

Tests used:
[1] = tested on: subjects with obstructive sleep apnea; experiment: Safety/tolerability of single dose in subjects with OSA; assay type: in vivo, human; conditions: single doses 44 mg and 112 mg, infusion over 9 hours, OSA patients
Excerpt: The purpose of the study was to evaluate the pharmacokinetics (PK), pharmacodynamics (PD), safety and tolerability of a single intravenous (IV) dose of Compound A in adults who have been diagnosed with obstructive sleep apnea (OSA) and who are experiencing excessive daytime sleepiness (EDS) despite adequate use of CPAP. Twenty-five patients were randomized, and 23 patients completed the study. All patients at entry were having EDS despite being adequately controlled by CPAP for their sleep apnea.
On Day 1 of Treatment Period 1, all eligible subjects were randomized and received the first dose of study drug. Compound A or placebo was administered as a single 9-hour IV infusion commencing at approximately 08:00. On each dosing day (Study Days 1, 3, and 5), 40-minute MWT sessions were performed at 2, 4, 6, and 8 hours after the start of the infusion. There was a minimum 24-hour washout interval between the end of the infusion and the commencement of treatment in subsequent treatment periods to allow for complete elimination of the preceding treatment effect. […] Blood samples for determination of Compound A plasma concentrations were collected predose and at specified time points postdose, Safety assessments were recorded. During the study, AEs were recorded, clinical laboratory tests, vital signs, and safety ECGs were obtained. […]

[2] = tested on: sleep-deprived healthy volunteers; experiment: Karolinska Sleepiness Scale (KSS) in sleep-deprived healthy volunteers; assay type: in vivo, human
Procedure: During the day before dosing on Day 1, participants were administered the KSS at scheduled timepoints. A practice MWT session was performed on Day 1 treatment period 1 (only once during the entire study) to familiarize subjects with the procedures. Study drug was administered in the clinic in the evening on Day 1 of each treatment period. Subjects underwent the MWT and KSS at specified timepoints after the start of the infusion. Subjects were required to stay awake between the MWT tests. Following completion of the IV infusion on Day 2, subjects underwent an additional MWT test. When the final MWT test and cognitive testing were completed, subjects were allowed to sleep (recovery sleep) for approximately 6 hours. PSG recording was collected during this time. Subjects were discharged from the unit after completion on Day 2 with continuing actigraphy upon discharge (to begin on Day −6 before the next treatment period). The interval between each subsequent treatment period was at least 7 days to ensure that the subject's circadian rhythm had returned to a normal cycle. Subject's vital signs, including BP, were monitored during the dosing and testing period. Blood samples for determination of Compound A plasma concentrations were collected at specified timepoints on Days 1 and 2 of each treatment period. Subjects completed the Columbia-Suicide Severity Rating Scale (C-SSRS) during screening, before study drug administration, and before discharge on Day 2 of each treatment period.
Secondary endpoints: • PK parameters calculated from plasma concentrations of Compound A. • Scores for sleepiness on the Karolinska Sleepiness Scale (KSS).
The secondary efficacy endpoint was sleepiness/alertness as assessed by KSS at 14, 10, 6, and 2 hours predose (approximately between 7:45 AM to 7:45 PM); 2, 2.75, 4.75, 6.75, and 8.75 hours post infusion start (approximately between mid-night to 7 AM in the morning); and at 1.75 hours post infusion end. A higher value indicates more sleepiness, a lower value indicates more alertness. Prior to infusion, there were no statistically significant differences at any time point of observation in KSS score for Compound A 44 and 112 mg treatments when compared to placebo. […] On the average, for modafinil and Compound A 44 and 112 mg, there were about 1.6 to 3.7 points increase in the KSS postdose/the infusion start, relative to that prior to dosing during the daytime. However, for placebo, the increase in the average KSS is 4.9.

[3] = Compound A 44 mg, 1.75 HOURS POST INFUSION END
[4] = Compound A 44 mg, 2 HOURS PREDOSE
[5] = Compound A 44 mg, 2.75 HOURS POST INFUSION START
[6] = Compound A 44 mg, 4.75 HOURS POST INFUSION START
[7] = Compound A 44 mg, 6 HOURS PREDOSE
[8] = Compound A 44 mg, 6.75 HOURS POST INFUSION START
[9] = Compound A 44 mg, 8.75 HOURS POST INFUSION START
[10] = Compound A 44 mg, 10 HOURS PREDOSE
[11] = Compound A 44 mg, 14 HOURS PREDOSE
[12] = Compound A 112 mg, 1.75 HOURS POST INFUSION END
[13] = Compound A 112 mg, 2 HOURS PREDOSE
[14] = Compound A 112 mg, 2.75 HOURS POST INFUSION START
[15] = Compound A 112 mg, 4.75 HOURS POST INFUSION START
[16] = Compound A 112 mg, 6 HOURS PREDOSE
[17] = Compound A 112 mg, 6.75 HOURS POST INFUSION START
[18] = Compound A 112 mg, 8.75 HOURS POST INFUSION START
[19] = Compound A 112 mg, 10 HOURS PREDOSE
[20] = Compound A 112 mg, 14 HOURS PREDOSE
[21] = HD: Compound A 112 mg, 1.75 HOURS POST INFUSION END
[22] = HD: Compound A 112 mg, 2 HOURS PREDOSE
[23] = HD: Compound A 112 mg, 2.75 HOURS POST INFUSION START
[24] = HD: Compound A 112 mg, 4.75 HOURS POST INFUSION START
[25] = HD: Compound A 112 mg, 6 HOURS PREDOSE
[26] = HD: Compound A 112 mg, 6.75 HOURS POST INFUSION START
[27] = HD: Compound A 112 mg, 8.75 HOURS POST INFUSION START
[28] = HD: Compound A 112 mg, 10 HOURS PREDOSE
[29] = HD: Compound A 112 mg, 14 HOURS PREDOSE
[30] = HD: Compound A 112 mg, DELTA: AVERAGE POST - AVERAGE PRIOR
[31] = LD: Compound A 44 mg, 1.75 HOURS POST INFUSION END
[32] = LD: Compound A 44 mg, 2 HOURS PREDOSE
[33] = LD: Compound A 44 mg, 2.75 HOURS POST INFUSION START
[34] = LD: Compound A 44 mg, 4.75 HOURS POST INFUSION START
[35] = LD: Compound A 44 mg, 6 HOURS PREDOSE
[36] = LD: Compound A 44 mg, 6.75 HOURS POST INFUSION START
[37] = LD: Compound A 44 mg, 8.75 HOURS POST INFUSION START
[38] = LD: Compound A 44 mg, 10 HOURS PREDOSE
[39] = LD: Compound A 44 mg, 14 HOURS PREDOSE
[40] = LD: Compound A 44 mg, DELTA: AVERAGE POST - AVERAGE PRIOR

COC(=O)N1CCC[C@H](NS(C)(=O)=O)[C@@H]1CO[C@H]1CC[C@@H](c2ccccc2)CC1 [Compound A, methyl (2R,3S)-3-((methylsulfonyl)amino)-2-(((cis-4-phenylcyclohexyl)oxy)methyl)piperidine-1-carboxylate]
Safety and tolerability [1]: safe and well tolerated
Difference between average KSS score post and prior to infusion start, LS Mean (SE) ([2]; Compound A 44 mg): 3.68 (0.332)
KSS Max [2, 3]: 9
KSS Mean (SD) [2, 3]: 8.4 (0.86)
KSS Median [2, 3]: 9.0
KSS Min [2, 3]: 6
KSS Max [2, 4]: 9
KSS Mean (SD) [2, 4]: 4.0 (2.30)
KSS Median [2, 4]: 3.5
KSS Min [2, 4]: 1
KSS Max [2, 5]: 8
KSS Mean (SD) [2, 5]: 4.8 (1.92)
KSS Median [2, 5]: 4.5
KSS Min [2, 5]: 1
KSS Max [2, 6]: 9
KSS Mean (SD) [2, 6]: 6.4 (2.12)
KSS Median [2, 6]: 6.5
KSS Min [2, 6]: 2
KSS Max [2, 7]: 7
KSS Mean (SD) [2, 7]: 2.8 (1.59)
KSS Median [2, 7]: 2.5
KSS Min [2, 7]: 1
KSS Max [2, 8]: 9
KSS Mean (SD) [2, 8]: 7.8 (0.94)
KSS Median [2, 8]: 8.0
KSS Min [2, 8]: 6
KSS Max [2, 9]: 9
KSS Mean (SD) [2, 9]: 8.1 (1.00)
KSS Median [2, 9]: 8.0
KSS Min [2, 9]: 5
KSS Max [2, 10]: 7
KSS Mean (SD) [2, 10]: 2.8 (1.40)
KSS Median [2, 10]: 3.0
KSS Min [2, 10]: 1
KSS Max [2, 11]: 6
KSS Mean (SD) [2, 11]: 2.8 (1.15)
KSS Median [2, 11]: 3.0
KSS Min [2, 11]: 1
Difference between average KSS score post and prior to infusion start, LS Mean (SE) ([2]; Compound A 112 mg): 1.64 (0.332)
KSS Max [2, 12]: 9
KSS Mean (SD) [2, 12]: 8.0 (1.57)
KSS Median [2, 12]: 8.5
KSS Min [2, 12]: 3
KSS Max [2, 13]: 6
KSS Mean (SD) [2, 13]: 3.4 (1.76)
KSS Median [2, 13]: 3.0
KSS Min [2, 13]: 1
KSS Max [2, 14]: 8
KSS Mean (SD) [2, 14]: 3.2 (2.02)
KSS Median [2, 14]: 2.0
KSS Min [2, 14]: 1
KSS Max [2, 15]: 9
KSS Mean (SD) [2, 15]: 3.8 (1.82)
KSS Median [2, 15]: 3.0
KSS Min [2, 15]: 1
KSS Max [2, 16]: 4
KSS Mean (SD) [2, 16]: 2.5 (0.92)
KSS Median [2, 16]: 3.0
KSS Min [2, 16]: 1
KSS Max [2, 17]: 9
KSS Mean (SD) [2, 17]: 5.2 (1.72)
KSS Median [2, 17]: 5.0
KSS Min [2, 17]: 2
KSS Max [2, 18]: 9
KSS Mean (SD) [2, 18]: 6.1 (1.95)
KSS Median [2, 18]: 6.0
KSS Min [2, 18]: 3
KSS Max [2, 19]: 7
KSS Mean (SD) [2, 19]: 2.5 (1.47)
KSS Median [2, 19]: 2.0
KSS Min [2, 19]: 1
KSS Max [2, 20]: 7
KSS Mean (SD) [2, 20]: 3.3 (1.74)
KSS Median [2, 20]: 3.0
KSS Min [2, 20]: 1
KSS Sleepy/Alert LS Mean [2, 21]: 8.01
KSS Sleepy/Alert LS Mean Difference vs Placebo Estimate [2, 21]: −0.14
KSS Sleepy/Alert LS Mean [2, 22]: 3.46
KSS Sleepy/Alert LS Mean Difference vs Placebo Estimate [2, 22]: −0.44
KSS Sleepy/Alert LS Mean [2, 23]: 3.24
KSS Sleepy/Alert LS Mean Difference vs Placebo Estimate [2, 23]: −3.61
KSS Sleepy/Alert LS Mean [2, 24]: 3.85
KSS Sleepy/Alert LS Mean Difference vs Placebo Estimate [2, 24]: −4.30
KSS Sleepy/Alert LS Mean [2, 25]: 2.51
KSS Sleepy/Alert LS Mean Difference vs Placebo Estimate [2, 25]: −0.29
KSS Sleepy/Alert LS Mean [2, 26]: 5.18
KSS Sleepy/Alert LS Mean Difference vs Placebo Estimate [2, 26]: −3.32
KSS Sleepy/Alert LS Mean [2, 27]: 6.07
KSS Sleepy/Alert LS Mean Difference vs Placebo Estimate [2, 27]: −2.26
KSS Sleepy/Alert LS Mean [2, 28]: 2.51
KSS Sleepy/Alert LS Mean Difference vs Placebo Estimate [2, 28]: 0.01
KSS Sleepy/Alert LS Mean [2, 29]: 3.29
KSS Sleepy/Alert LS Mean Difference vs Placebo Estimate [2, 29]: 0.24
KSS Sleepy/Alert LS Mean ([2]; HD: Compound A 112 mg, AVERAGE POST INFUSION START (2.75, 4.75, 6.75 AND 8.75 HOURS)): 4.58
KSS Sleepy/Alert LS Mean ([2]; HD: Compound A 112 mg, AVERAGE PRIOR TO INFUSION START (14, 10, 6, 2 HOURS PREDOSE)): 2.95
KSS Sleepy/Alert LS Mean [2, 30]: 1.64
KSS Sleepy/Alert LS Mean Difference vs Placebo Estimate [2, 30]: −3.26
KSS Sleepy/Alert LS Mean [2, 31]: 8.46
KSS Sleepy/Alert LS Mean Difference vs Placebo Estimate [2, 31]: 0.31
KSS Sleepy/Alert LS Mean [2, 32]: 4.01
KSS Sleepy/Alert LS Mean Difference vs Placebo Estimate [2, 32]: 0.11
KSS Sleepy/Alert LS Mean [2, 33]: 4.85
KSS Sleepy/Alert LS Mean Difference vs Placebo Estimate [2, 33]: −2.00
KSS Sleepy/Alert LS Mean [2, 34]: 6.46
KSS Sleepy/Alert LS Mean Difference vs Placebo Estimate [2, 34]: −1.69
KSS Sleepy/Alert LS Mean [2, 35]: 2.79
KSS Sleepy/Alert LS Mean Difference vs Placebo Estimate [2, 35]: −0.01
KSS Sleepy/Alert LS Mean [2, 36]: 7.79
KSS Sleepy/Alert LS Mean Difference vs Placebo Estimate [2, 36]: −0.71
KSS Sleepy/Alert LS Mean [2, 37]: 8.07
KSS Sleepy/Alert LS Mean Difference vs Placebo Estimate [2, 37]: −0.26
KSS Sleepy/Alert LS Mean [2, 38]: 2.79
KSS Sleepy/Alert LS Mean Difference vs Placebo Estimate [2, 38]: 0.29
KSS Sleepy/Alert LS Mean [2, 39]: 2.85
KSS Sleepy/Alert LS Mean Difference vs Placebo Estimate [2, 39]: −0.20
KSS Sleepy/Alert LS Mean ([2]; LD: Compound A 44 mg, AVERAGE POST INFUSION START (2.75, 4.75, 6.75 AND 8.75 HOURS)): 6.79
KSS Sleepy/Alert LS Mean ([2]; LD: Compound A 44 mg, AVERAGE PRIOR TO INFUSION START (14, 10, 6, 2 HOURS PREDOSE)): 3.11
KSS Sleepy/Alert LS Mean [2, 40]: 3.68
KSS Sleepy/Alert LS Mean Difference vs Placebo Estimate [2, 40]: −1.22
